Among the test systems are HCC-2998 colon; LOX IMVI melanoma; IGROV1 ovarian; OVCAR-8 ovarian; SF-539 CNS; A549 NSCLC; HOP-62 NSCLC; NCI-H522 lung; UACC-62 melanoma; SN12C renal; NCI-H460 lung; NCI-H226 lung; SR leukemia; HS 578T breast; RXF 393 renal; TK-10 renal; SK-MEL-5 melanoma; MDA-MB-435; NCI/ADR-RES ovarian; PC-3 prostate.
Common to all, as to assay: inhibition of tumour cell growth, NCI panel, 48 h

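Cells were grown in 96-well plates and exposed to each compound for 48 hours at five concentrations; endpoints were interpolated linearly between bracketing concentrations, or set to the highest concentration if not reached. The concentration for full growth arrest is given as TGI.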

On to `Cc1cn([C@@H]2C[C@H](CO)[C@@H](O)C2)c(=O)[nH]c1=O`, for which the TGI with HCC-2998 colon, with LOX IMVI melanoma, in the assay on IGROV1 ovarian, in the assay on OVCAR-8 ovarian, in the assay with SF-539 CNS and in the assay with A549 NSCLC was over 100 µM throughout. Also, the TGI in the assay on HOP-62 NSCLC, with NCI-H522 lung, in the assay with UACC-62 melanoma, in the assay on SN12C renal, in the assay on NCI-H460 lung and in the assay on NCI-H226 lung was over 100 µM in each case.
Turning to `C=CCNC(=S)N=Nc1c(O)[nH]c2ccc([N+](=O)[O-])cc12`, the TGI is over 100 µM in the assay on SR leukemia; over 100 µM in the assay on HCC-2998 colon; over 100 µM in the assay with HS 578T breast; 73.3 µM with RXF 393 renal; over 100 µM in the assay on LOX IMVI melanoma; over 100 µM with IGROV1 ovarian. Besides, the TGI in the assay on TK-10 renal, in the assay with SK-MEL-5 melanoma, in the assay with OVCAR-8 ovarian, in the assay on SF-539 CNS, in the assay on A549 NSCLC and with HOP-62 NSCLC was over 100 µM in each case. The TGI with MDA-MB-435, in the assay on NCI-H522 lung, in the assay with UACC-62 melanoma, in the assay with SN12C renal, in the assay on NCI/ADR-RES ovarian and in the assay on PC-3 prostate was over 100 µM throughout. In addition, the TGI with NCI-H460 lung and in the assay on NCI-H226 lung was over 100 µM throughout.
On to `c1ccc2c(c1)c1c(n2CCOCCN2CCOCC2)CCCC1`, for which the TGI in the assay on SR leukemia was over 100 µM; in the assay on HS 578T breast it was over 100 µM; with LOX IMVI melanoma it was 63.6 µM; in the assay on IGROV1 ovarian, over 100 µM; in the assay with TK-10 renal it was 58.6 µM; in the assay on SK-MEL-5 melanoma, 48.9 µM. Further, the TGI in the assay with OVCAR-8 ovarian was over 100 µM; in the assay on SF-539 CNS, over 100 µM; with A549 NSCLC, over 100 µM; with HOP-62 NSCLC it was over 100 µM; in the assay on NCI/ADR-RES ovarian, 54.9 µM; in the assay on PC-3 prostate, over 100 µM. This molecule also came in with a TGI in the assay with NCI-H460 lung of over 100 µM.
`CCC1=NC(C(F)(F)F)(C(F)(F)F)N=C(N2CCOCC2)O1`: the TGI with SR leukemia, in the assay on HCC-2998 colon, in the assay on HS 578T breast, with RXF 393 renal, with LOX IMVI melanoma and in the assay with IGROV1 ovarian was over 100 µM throughout. The TGI in the assay with TK-10 renal, with SK-MEL-5 melanoma, in the assay on OVCAR-8 ovarian, in the assay with SF-539 CNS, in the assay on A549 NSCLC and in the assay on MDA-MB-435 was over 100 µM each time. The TGI in the assay on NCI-H522 lung, in the assay with UACC-62 melanoma, in the assay on SN12C renal, in the assay with NCI/ADR-RES ovarian, with PC-3 prostate and with NCI-H460 lung was over 100 µM throughout.
In the case of `N#CC1=C(c2ccccc2)NNC(c2ccc(Cl)cc2)CC1=O` (configuration not stated), the TGI in the assay with SR leukemia was over 100 µM; in the assay with HCC-2998 colon it was over 100 µM; in the assay on RXF 393 renal, over 100 µM; in the assay on LOX IMVI melanoma, over 100 µM; in the assay on TK-10 renal, over 100 µM; in the assay on SK-MEL-5 melanoma it was 68.2 µM. The TGI is over 100 µM with A549 NSCLC; 73.8 µM in the assay with HOP-62 NSCLC; 51.7 µM in the assay on NCI-H522 lung; over 100 µM in the assay on SN12C renal; over 100 µM in the assay on NCI-H460 lung; 8.26 µM in the assay with NCI-H226 lung.
Regarding `Cc1ccc([N+](=O)[O-])cc1N=NC(=O)NNc1cc([N+](=O)[O-])ccc1C`, the TGI in the assay with SR leukemia was over 100 µM; in the assay with HCC-2998 colon, 58 µM; in the assay on HS 578T breast, 55.6 µM; with RXF 393 renal, 66.6 µM; in the assay on SK-MEL-5 melanoma it was 34.9 µM; in the assay on OVCAR-8 ovarian it was 70 µM. The TGI was over 100 µM in the assay with HOP-62 NSCLC; 53 µM in the assay on MDA-MB-435; 29.7 µM in the assay on NCI-H522 lung; 33.2 µM in the assay on UACC-62 melanoma; over 100 µM in the assay on NCI/ADR-RES ovarian; over 100 µM in the assay with PC-3 prostate.

The record behind these values is PubChem BioAssay (NCI).
